pIC50: −log10 of the molar value.
What was measured:
[1] = target: T1, EGFR T790M/L858R (Homo sapiens, UniProt P00533, L858R/T790M); assay: EGFR T790M/L858R enzyme HTRF inhibition assay; assay type: biochemical; settings: 20 μM ATP, read-out: EGFR L858R/T79M IC50
T1 construct: purchased Life technology (Madison, Wis.)
Description: (§1) Enzyme: EGFR wild type, EGFR T790M/L858R, EGFR T790M and INSR were purchased from Life technology (Madison, Wis.), EGFR d746-750/T790M was purchased from Carna Biosciences (Japan).
(§2) HTRF Kit was purchased from Cis-Bio International which contained the Eu-labeled TK1 antibody, XL665 and biotin-labeled TK1 polypeptide substrates.
(§3) Detecting instrument: Envision (PerkinElmer).
(§4) The test compound was diluted 3-fold to obtain 10 doses of which the final concentration was from 300 nM to 0.015 nM.
EGFR T790M/L858R Enzyme Reaction Mixture System:
0.04 nM EGFR T790M/L858R, 1 μM biotin-TK1 peptide, 20 μM ATP enzyme buffer, a total of which was 10 μL. The reaction plate was white Proxiplate 384-Plus plate (PerkinElmer) and the mixture was reacted at 23° C. for 60 minutes.
(§5) Reaction Detection: 10 μL of detection reagent containing Antibody 2 nM and XL665 62.5 nM was added, and the reagent was incubated at 23° C. for 60 minutes. The plates were read by Envision.
(§6) The reading is converted to the suppression rate (%) by the following formula […]/(Max-Min)*100%. IC50 Data was measured by four-parameter curve fitting (Model 205 in XLFITS, IDBS).

[2] = test system: NCI-H1975 cells EGFR L858R/T790M; assay: NCI-H1975 cell viability assay (Cell Titer-Glo, 6 days); assay type: cell-based; settings: Homo sapiens, 144 h
How it was run: (§7)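 A431 (EGFR WT) and NCI-H1975 (EGFR L858R/T790M) cells treated for 6 days at 37° C, in duplicate with 10 three-fold doses from 10 μM to 0.508 nM final. Viability read as CellTiter-Glo luminescence. IC50 from four-parameter fit of % inhibition.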

[3] = test system: A431 cells EGFR WT; assay: A431 cell viability assay (Cell Titer-Glo, 6 days); assay type: cell-based, human; settings: for pIC50: Homo sapiens, A-431, 144 h, A431 cells, 6 days; for A431:NCI-H1975 (ratio): ratio of cell IC50 A431 to NCI-H1975
How it was run: as §7

[4] = test system: NCI-H1975 lung cancer patient-derived xenograft (CDX); assay: Pharmacodynamics study in vivo, NCI-H1975 xenograft (CDX) model; set-up: species or system BALB/c nude mice; settings: AZD9291 5 mg/kg; for Tumor Volume (mm^3) 4 days: day 4, oral daily: compound 30 10 mg/kg, 33, 34, 40, 42, 43 20 mg/kg; for Tumor Volume (mm^3) 7 days: day 7, oral daily: compound 30 10 mg/kg, 33, 34, 40, 42, 43 20 mg/kg; for Tumor Volume (mm^3) 11 days: day 11, oral daily: compound 30 10 mg/kg, 33, 34, 40, 42, 43 20 mg/kg; for Tumor Volume (mm^3) 14 days: day 14, oral daily: compound 30 10 mg/kg, 33, 34, 40, 42, 43 20 mg/kg; for Tumor Volume (mm^3) 18 days: day 18, oral daily: compound 30 10 mg/kg, 33, 34, 40, 42, 43 20 mg/kg
Description: For example, after 21 days of administration, the tumor volume of the representative compounds 30, 33, 34, 40, 42 and 43 decreased from the beginning of about 149 mm^3 to 3-39 mm^3.
The pharmacological experiments in vivo were performed on BALB/c nude mice that subcutaneously implanted NCI-H1975 lung cancer […] xenograft (CDX).
BALB/c nude mice, female, 6-8 weeks, weighted about 18-22 grams, the mice were kept in a special pathogen-free environment, and in a single ventilation cage (5 mice per cage). The bedding and water of all the cages were disinfected before use. All animals were free to obtain standard certified commercial laboratory diets. A total of 100 mice were purchased from Beijing Vital for research. The tumor tissue (20-30 mm^3) was implanted subcutaneously in the […] of each mouse for tumor growth. The experiment was started when the average tumor volume reached about 150-200 mm^3. The test compound was orally administered daily (compound 30 was administered at 10 mg/kg, compound 33, 34, 40, 42 and 43 were administered at 20 mg/kg and compound AZD9291 was administered continuously for 21 days at 5 mg/kg, the data were shown in Table 3). The tumor volume was measured twice a week with a two-dimensional caliper and the volume was measured in cubic millimeters and calculated by the following formula: V=V=0.5 a×b2, where a and b were the major and minor diameters of the tumor, respectively.

[5] = target: T2, EGFR d746-750/T790M (Homo sapiens, UniProt P00533, DEL746-750/T790M); assay: EGFR d746-750/T790M enzyme HTRF inhibition assay; assay type: biochemical; settings: 40 μM ATP
T2 construct: purchased Carna Biosciences (Japan)
Description: as §1, §2, §3, §4
EGFR d746-750/T790M Enzyme Reaction Mixture System:
0.025 nM EGFR d746-750/T790M, 1 μM biotin-TK1 peptide, 40 μM ATP enzyme buffer, a total of which was 10 μL. The reaction plate was white Proxiplate 384-Plus plate (PerkinElmer) and the mixture was reacted at 23° C. for 60 minutes.
as §5, §6

[6] = target: T3, EGFR wild type (Homo sapiens, UniProt P00533); assay: Wild-type EGFR enzyme HTRF inhibition assay; assay type: biochemical; settings: 25 μM ATP, read-out: EGFR WT IC50
T3 construct: purchased Life technology (Madison, Wis.)
Description: as §1, §2, §3, §4
Wild-Type EGFR Enzyme Reaction Mixture System:
0.05 nM Wild-type EGFR, 1 μM biotin-TK1 peptide, 25 μM ATP enzyme buffer, a total of which was 10 μL. The reaction plate was white Proxiplate 384-Plus plate (PerkinElmer) and the mixture was reacted at 23° C. for 60 minutes.
as §5, §6

[7] = test system: human skin squamous cell A431 xenograft (CDX); assay: Selectivity study in vivo, A431 xenograft (CDX) model; set-up: species or system BALB/c nude mice; settings: Table 5 experiment, AZD9291 5 mg/kg; for Tumor Volume (mm^3) 4 days: day 4, oral once daily: 33, 34, 40, 42, 43 20 mg/kg; for Tumor Volume (mm^3) 11 days: day 11, oral once daily: 33, 34, 40, 42, 43 20 mg/kg; for Tumor Volume (mm^3) 18 days: day 18, oral once daily: 33, 34, 40, 42, 43 20 mg/kg
Description: In this model, the less inhibitory effect on the tumor, the better the selectivity in vivo.
The selective experiments in vivo were performed on BALB/c nude mice that subcutaneously implanted human skin squamous cell A431 xenograft (CDX).
BALB/c nude mice, female, 6-8 weeks, weighted about 18-20 grams, the mice were kept in a special pathogen-free environment and in a single ventilation cage (5 mice per cage). The bedding and water of all the cages were disinfected before use. All animals were free to obtain standard certified commercial laboratory diets. All mice were purchased from mice of Shanghai BK Laboratory Animal Co., LTD for research. The tumor tissue (20-30 mm^3) was implanted subcutaneously in the […] of each mouse for tumor growth. The experiment was started when the average tumor volume reached about 150-200 mm^3. The test compound was orally administered (compounds 17, 30, 37 and 38 were administered once daily at 20 mg/kg, the compound AZD9291 was administered once daily at 5 mg/kg, the compound CO-1686 was administered twice daily at 50 mg/kg, the compound Erlotinib was administered once daily at 75 mg/kg and the compound Afatinib was administered once daily at 7.5 mg/kg, 21 days of continuous administration. The data were shown in Table 4; compounds 33, 34, 40, 42 and 43 were administered once daily at 20 mg/kg and compound AZD9291 was administered once daily at5 mg/kg, 21 days of continuous administration. The tumor volume was measured twice a week with a two-dimensional caliper and the volume was measured in cubic millimeters and calculated by the following formula: V=V=0.5 a×b2, where a and b were the major and minor diameters of the tumor, respectively.

T1 sequence (P00533 25-1210 T790M/L858R): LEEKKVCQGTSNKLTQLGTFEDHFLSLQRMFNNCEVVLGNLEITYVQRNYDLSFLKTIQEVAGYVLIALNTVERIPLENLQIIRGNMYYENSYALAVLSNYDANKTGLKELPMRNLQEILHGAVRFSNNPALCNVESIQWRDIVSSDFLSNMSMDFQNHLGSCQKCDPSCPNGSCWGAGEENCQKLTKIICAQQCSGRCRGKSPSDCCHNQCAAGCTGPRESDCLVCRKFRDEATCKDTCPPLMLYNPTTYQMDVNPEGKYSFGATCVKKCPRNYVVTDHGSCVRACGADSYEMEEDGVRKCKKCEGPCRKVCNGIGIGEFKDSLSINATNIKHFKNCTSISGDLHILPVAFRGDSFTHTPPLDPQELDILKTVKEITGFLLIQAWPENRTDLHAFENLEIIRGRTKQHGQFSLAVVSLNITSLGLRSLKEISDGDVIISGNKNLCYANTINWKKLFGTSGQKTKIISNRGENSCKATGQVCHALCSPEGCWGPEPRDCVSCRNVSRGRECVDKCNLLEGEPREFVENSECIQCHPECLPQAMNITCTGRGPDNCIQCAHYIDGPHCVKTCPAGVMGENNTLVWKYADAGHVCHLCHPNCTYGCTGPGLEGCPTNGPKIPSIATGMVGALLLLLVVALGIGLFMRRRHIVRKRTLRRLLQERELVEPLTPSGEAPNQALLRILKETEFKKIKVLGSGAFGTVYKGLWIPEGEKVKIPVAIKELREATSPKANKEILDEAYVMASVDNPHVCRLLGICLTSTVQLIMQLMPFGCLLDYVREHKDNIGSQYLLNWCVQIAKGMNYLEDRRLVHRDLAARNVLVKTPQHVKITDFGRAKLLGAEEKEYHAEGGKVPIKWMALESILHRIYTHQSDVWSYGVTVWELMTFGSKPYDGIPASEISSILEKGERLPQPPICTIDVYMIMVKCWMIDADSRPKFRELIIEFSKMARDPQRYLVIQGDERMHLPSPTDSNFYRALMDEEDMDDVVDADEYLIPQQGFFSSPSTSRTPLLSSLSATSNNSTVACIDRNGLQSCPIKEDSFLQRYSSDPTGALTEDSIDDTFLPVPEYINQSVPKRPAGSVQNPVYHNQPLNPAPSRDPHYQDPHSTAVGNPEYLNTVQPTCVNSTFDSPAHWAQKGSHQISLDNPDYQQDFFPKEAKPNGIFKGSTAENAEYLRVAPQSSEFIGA
T2 sequence (P00533 with tags, fused parts or gaps DEL746-750/T790M limits assumed): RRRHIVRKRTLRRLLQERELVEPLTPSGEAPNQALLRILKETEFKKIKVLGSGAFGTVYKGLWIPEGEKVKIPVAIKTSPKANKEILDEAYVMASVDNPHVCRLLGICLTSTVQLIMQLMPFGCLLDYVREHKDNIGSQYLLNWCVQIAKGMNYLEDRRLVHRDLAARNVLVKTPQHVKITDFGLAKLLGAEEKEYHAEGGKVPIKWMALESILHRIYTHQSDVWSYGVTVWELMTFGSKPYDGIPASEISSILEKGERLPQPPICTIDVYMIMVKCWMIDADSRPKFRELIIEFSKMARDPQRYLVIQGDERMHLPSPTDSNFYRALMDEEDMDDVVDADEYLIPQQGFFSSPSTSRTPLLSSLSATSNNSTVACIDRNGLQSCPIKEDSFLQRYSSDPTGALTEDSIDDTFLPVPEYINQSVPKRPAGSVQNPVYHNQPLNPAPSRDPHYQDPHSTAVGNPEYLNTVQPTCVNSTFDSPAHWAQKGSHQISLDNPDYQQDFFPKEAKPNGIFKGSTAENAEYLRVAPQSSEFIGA
T3 sequence (P00533 25-1210): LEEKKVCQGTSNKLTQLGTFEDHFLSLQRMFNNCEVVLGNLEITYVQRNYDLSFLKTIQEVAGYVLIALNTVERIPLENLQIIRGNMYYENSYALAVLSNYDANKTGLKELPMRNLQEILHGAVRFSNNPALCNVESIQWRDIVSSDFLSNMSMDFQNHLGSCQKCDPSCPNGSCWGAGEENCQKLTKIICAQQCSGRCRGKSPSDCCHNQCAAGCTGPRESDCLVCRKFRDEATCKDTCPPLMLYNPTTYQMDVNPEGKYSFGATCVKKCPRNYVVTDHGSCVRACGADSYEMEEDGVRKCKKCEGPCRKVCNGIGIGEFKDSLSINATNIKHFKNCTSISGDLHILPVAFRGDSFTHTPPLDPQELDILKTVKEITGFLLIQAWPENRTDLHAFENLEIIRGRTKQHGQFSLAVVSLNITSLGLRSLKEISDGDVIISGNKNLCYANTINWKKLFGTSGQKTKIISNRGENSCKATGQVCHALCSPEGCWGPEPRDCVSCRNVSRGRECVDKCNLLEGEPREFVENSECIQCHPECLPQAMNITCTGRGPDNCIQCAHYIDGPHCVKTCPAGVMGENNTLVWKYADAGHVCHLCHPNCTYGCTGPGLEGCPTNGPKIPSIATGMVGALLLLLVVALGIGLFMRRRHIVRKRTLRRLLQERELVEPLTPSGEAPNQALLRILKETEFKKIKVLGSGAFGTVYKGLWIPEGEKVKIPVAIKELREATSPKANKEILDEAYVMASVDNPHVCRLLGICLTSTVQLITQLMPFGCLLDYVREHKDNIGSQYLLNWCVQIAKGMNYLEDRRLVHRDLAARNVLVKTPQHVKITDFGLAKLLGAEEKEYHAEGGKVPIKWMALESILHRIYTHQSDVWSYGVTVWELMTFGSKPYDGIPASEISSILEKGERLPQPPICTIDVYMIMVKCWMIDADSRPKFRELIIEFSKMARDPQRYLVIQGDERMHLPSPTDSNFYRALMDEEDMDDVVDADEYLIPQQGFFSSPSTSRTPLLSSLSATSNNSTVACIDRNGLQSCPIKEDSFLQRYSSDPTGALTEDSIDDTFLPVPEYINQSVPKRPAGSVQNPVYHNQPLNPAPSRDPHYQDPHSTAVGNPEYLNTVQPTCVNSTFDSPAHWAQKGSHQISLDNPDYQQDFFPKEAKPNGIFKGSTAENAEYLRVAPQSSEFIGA

Row | Structure (SMILES) | pIC50 [1] | pIC50 [2] | pIC50 [3] | pIC50 [5] | pIC50 [6] | A431:NCI-H1975 (ratio) [3] | Tumor Volume (mm^3) 4 days [4] | Tumor Volume (mm^3) 7 days [4] | Tumor Volume (mm^3) 11 days [4] | Tumor Volume (mm^3) 14 days [4] | Tumor Volume (mm^3) 18 days [4] | Tumor Volume (mm^3) 4 days [7] | Tumor Volume (mm^3) 11 days [7] | Tumor Volume (mm^3) 18 days [7]
1 | C=CC(=O)Nc1cc(Nc2nccc(-c3c4n(c5ccccc35)CCC4)n2)c(OC)cc1CCCN(C)C [Embodiment 10] | 8.66 | 6.55 | 5.65 | 8.72 | 7.56 | 8.0 |  |  |  |  |  |  |  | 
2 | C=CC(=O)Nc1cc(Nc2nccc(-c3c4n(c5ccccc35)CCC4)n2)c(OC)cc1N1CC(N(C)C)C1 [Embodiment 2, N-(5-((4-(2,3-Dihydro-1H-pyrrolo[1,2-a]indol-9-yl)pyrimidin-2-yl)amino)-2-(3-(dimethylamino)azetidin-1-yl)-4-methoxyphenyl)acrylamide] | 9.26 | 5.32 | < 5.00 | 9.17 | 8.37 | >2.1 |  |  |  |  |  |  |  | 
3 | C=CC(=O)Nc1cc(Nc2nccc(-c3c4n(c5ccccc35)CCOC4)n2)c(OC(C)C)cc1N(C)CCN(C)C [Embodiment 29, N-(5-((4-(3,4-Dihydro-1H-[1,4]oxazino[4,3-a]indol-10-yl)pyrimidin-2-yl)amino)-2-((2-(dimethylamino)ethyl)(methyl)amino)-4-isopropoxyphenyl)acrylamide] | 9.42 | 7.60 | 5.93 | 9.42 | 8.29 | 47 |  |  |  |  |  |  |  | 

Now from value to compound, other results behind:

Row | pIC50 [1] | pIC50 [2] | pIC50 [3] | pIC50 [5] | pIC50 [6] | Structure (SMILES) | A431:NCI-H1975 (ratio) [3] | Tumor Volume (mm^3) 4 days [4] | Tumor Volume (mm^3) 7 days [4] | Tumor Volume (mm^3) 11 days [4] | Tumor Volume (mm^3) 14 days [4] | Tumor Volume (mm^3) 18 days [4] | Tumor Volume (mm^3) 4 days [7] | Tumor Volume (mm^3) 11 days [7] | Tumor Volume (mm^3) 18 days [7]
4 | 9.10 | 7.17 | 5.68 | 9.22 | 8.70 | C=CC(=O)Nc1cc(Nc2ncc(F)c(-c3c4n(c5cc(Cl)ccc35)CCOC4)n2)c(OC)cc1N(C)CCN(C)C [Embodiment 34, N-(5-((4-(7-Chloro-3,4-dihydro-1H-[1,4]oxazino[4,3-a]indol-10-yl)-5-fluoropyrimidin-2-yl)amino)-2-((2-(dimethylamino)ethyl)(methyl)amino)-4-methoxyphenyl)acrylamide] | 31 | 102 mm^3 | 80 mm^3 | 70 mm^3 | 59 mm^3 | 35 mm^3 | 237 mm^3 | 646 mm^3 | 1357 mm^3
5 | 9.70 | 6.75 | 6.07 | 9.70 | 9.10 | C=CC(=O)Nc1cc(Nc2nccc(-c3cn4c5c(cccc35)OC3(CC3)C4)n2)c(OC)cc1N(C)CCN(C)C [Embodiment 42, N-(5-((4-(3H-Spiro[[1,4]oxazino[2,3,4-hi]indole-2,1′-cyclopropan]-6-yl)pyrimidin-2-yl)amino)-2-((2-(dimethylamino)ethyl)(methyl)amino)-4-methoxyphenyl)acrylamide] | 4.8 | 85 mm^3 | 69 mm^3 | 57 mm^3 | 47 mm^3 | 20 mm^3 | 226 mm^3 | 424 mm^3 | 661 mm^3
6 |  | 6.58 | 6.26 |  |  | C=CC(=O)Nc1cc(Nc2nccc(-c3cn4c5c(cccc35)OC3(CC3)C4)n2)c(OC)cc1N(C)CC(C)(C)N(C)C [Embodiment 43, N-(5-((4-(3H-Spiro[[1,4]oxazino[2,3,4-hi]indole-2,1′-cyclopropan]-6-yl)pyrimidin-2-yl)amino)-2-((2-(dimethylamino)-2-methylpropyl)(methyl)amino)-4-methoxyphenyl)acrylamide] | 2.1 | 92 mm^3 | 65 mm^3 | 61 mm^3 | 45 mm^3 | 23 mm^3 | 238 mm^3 | 516 mm^3 | 820 mm^3
7 | 9.52 | 7.64 | 6.55 | 9.40 | 9.10 | C=CC(=O)Nc1cc(Nc2nccc(-c3cn4c5c(cccc35)OCCC4)n2)c(OC)cc1N(C)CCN(C)C [Embodiment 40, N-(5-((4-(3,4-Dihydro-2H-[1,4]oxazepino[2,3,4-hi]indol-7-yl)pyrimidin-2-yl)amino)-2-((2-(dimethylamino)ethyl)(methyl)amino)-4-methoxyphenyl)acrylamide] | 12 | 108 mm^3 | 85 mm^3 | 91 mm^3 | 91 mm^3 | 84 mm^3 | 212 mm^3 | 445 mm^3 | 895 mm^3

— patent US10093656B2, “Fused-ring or tricyclic aryl pyrimidine compound used as kinase inhibitor” (NANJING SANHOME PHARMACEUTICAL CO., LTD, priority 2015, dated 2018)
